ChEMBL document CHEMBL3885861, “Open TG-GATES”

Organism: Rattus norvegicus
Assay: Open TG-GATES - Regimen: Single
Assay type: toxicity, organism-based, Sprague-Dawley
Parameters: regimen Single, gender Male, age 6 weeks
Conditions: in vivo, po, 100 mg/kg, route gavage; for APTT / Bas / Eos / Fbg / Hb / Ht / Lym / MCH / MCHC / MCV / Mono / Neu / PT / Plat / RBC / Ret / WBC: tissue Blood; for KIDNEY_L / KIDNEY_R / KIDNEY_TOTAL: tissue Kidney; for LIVER: tissue Liver; for A/G / ALP / ALT / AST / BUN / CRE / Ca / Cl / DBIL / GLC / IP / K / LDH / Na / PL / RALB / TBIL / TC / TG / TP / gamma-GTP: tissue Plasma

SMILES: O=C1CN(/N=C/c2ccc([N+](=O)[O-])o2)C(=O)N1 [NITROFURANTOIN]
- TERMINAL_BW (6 h, dose level Low): 199.6 g
- APTT (6 h, dose level High): 18.6 s
- Bas (6 h, dose level High): 0%
- Eos (6 h, dose level High): 1%
- Fbg (6 h, dose level High): 216.6 mg/dL
- Hb (6 h, dose level High): 13.3 g/dL
- Ht (6 h, dose level High): 38%
- Lym (6 h, dose level High): 73%
- MCH (6 h, dose level High): 21.6 pg
- MCHC (6 h, dose level High): 35%
- MCV (6 h, dose level High): 61.7 fL
- Mono (6 h, dose level High): 3.2%
- Neu (6 h, dose level High): 21.4%
- PT (6 h, dose level High): 12.9 s
- Plat (6 h, dose level High): 122 x10_4/uL
- RBC (6 h, dose level High): 615 x10_4/ul
- Ret (6 h, dose level High): 7.7%
- WBC (6 h, dose level High): 113.2 x10_2/uL
- APTT (6 h, dose level Low): 16.4 s
- Eos (6 h, dose level Low): 1.2%
- Fbg (6 h, dose level Low): 215.8 mg/dL
- Hb (6 h, dose level Low): 13.4 g/dL
- Ht (6 h, dose level Low): 40.6%
- Lym (6 h, dose level Low): 74.6%
- MCH (6 h, dose level Low): 21.3 pg
- MCHC (6 h, dose level Low): 32.9%
- MCV (6 h, dose level Low): 64.5 fL
- Mono (6 h, dose level Low): 6.8%
- Neu (6 h, dose level Low): 17.8%
- PT (6 h, dose level Low): 11.7 s
- Plat (6 h, dose level Low): 121.5 x10_4/uL
- RBC (6 h, dose level Low): 629.8 x10_4/ul
- Ret (6 h, dose level Low): 7%
- WBC (6 h, dose level Low): 89.8 x10_2/uL
- KIDNEY_L (6 h, dose level High): 1 g
- KIDNEY_R (6 h, dose level High): 1 g
- KIDNEY_TOTAL (6 h, dose level High): 2 g
- KIDNEY_L (6 h, dose level Low): 0.9 g
- KIDNEY_R (6 h, dose level Low): 0.9 g
- KIDNEY_TOTAL (6 h, dose level Low): 1.8 g
- LIVER (6 h, dose level High): 9.4 g
- LIVER (6 h, dose level Low): 8.3 g
- A/G (6 h, dose level High): 1.5
- ALP (6 h, dose level High): 745.6 IU/L
- ALT (6 h, dose level High): 32.2 IU/L
- AST (6 h, dose level High): 64.6 IU/L
- BUN (6 h, dose level High): 10.6 mg/dL
- CRE (6 h, dose level High): 0.4 mg/dL
- Ca (6 h, dose level High): 10.6 mg/dL
- Cl (6 h, dose level High): 103.8 meq/L
- DBIL (6 h, dose level High): 0.078 mg/dL
- GLC (6 h, dose level High): 184.4 mg/dL
- IP (6 h, dose level High): 8.9 mg/dL
- K (6 h, dose level High): 4.2 meq/L
- LDH (6 h, dose level High): 211 IU/L
- Na (6 h, dose level High): 140.8 meq/L
- PL (6 h, dose level High): 135.4 mg/dL
- RALB (6 h, dose level High): 3.3 g/dL
- TBIL (6 h, dose level High): 0.1 mg/dL
- TC (6 h, dose level High): 78.8 mg/dL
- TG (6 h, dose level High): 55 mg/dL
- TP (6 h, dose level High): 5.5 g/dL
- gamma-GTP (6 h, dose level High): 1.2 IU/L
- A/G (6 h, dose level Low): 2.2
- ALP (6 h, dose level Low): 1217 IU/L
- AST (6 h, dose level Low): 66 IU/L
- BUN (6 h, dose level Low): 13.6 mg/dL
- Ca (6 h, dose level Low): 11 mg/dL
- Cl (6 h, dose level Low): 104.6 meq/L
- DBIL (6 h, dose level Low): 0.008 mg/dL
- GLC (6 h, dose level Low): 190.8 mg/dL
- IP (6 h, dose level Low): 8.7 mg/dL
- K (6 h, dose level Low): 4.6 meq/L
- LDH (6 h, dose level Low): 92.2 IU/L
- Na (6 h, dose level Low): 139.4 meq/L
- PL (6 h, dose level Low): 150.8 mg/dL
- RALB (6 h, dose level Low): 3.9 g/dL
- TBIL (6 h, dose level Low): 0.036 mg/dL
- TC (6 h, dose level Low): 100 mg/dL
- TG (6 h, dose level Low): 44 mg/dL
- TP (6 h, dose level Low): 5.7 g/dL
- gamma-GTP (6 h, dose level Low): 0.4 IU/L
- TERMINAL_BW (9 h, dose level High): 213.9 g
- TERMINAL_BW (9 h, dose level Low): 211 g
- APTT (9 h, dose level High): 19.3 s
- Bas (9 h, dose level High): 0%
- Eos (9 h, dose level High): 1%
- Fbg (9 h, dose level High): 245.8 mg/dL
- Hb (9 h, dose level High): 13.1 g/dL
- Ht (9 h, dose level High): 37.3%
- Lym (9 h, dose level High): 75.4%
- MCH (9 h, dose level High): 21.5 pg
- MCHC (9 h, dose level High): 35.2%
- MCV (9 h, dose level High): 61.1 fL
- Mono (9 h, dose level High): 2.6%
- Neu (9 h, dose level High): 19.8%
- PT (9 h, dose level High): 12.9 s
- Plat (9 h, dose level High): 126.6 x10_4/uL
- RBC (9 h, dose level High): 609.4 x10_4/ul
- Ret (9 h, dose level High): 8%
- WBC (9 h, dose level High): 77.1 x10_2/uL
- APTT (9 h, dose level Low): 19 s
- Eos (9 h, dose level Low): 1.2%
- Fbg (9 h, dose level Low): 229.2 mg/dL
- Hb (9 h, dose level Low): 12.7 g/dL
- Ht (9 h, dose level Low): 39%
- Lym (9 h, dose level Low): 65.6%
- MCH (9 h, dose level Low): 20.8 pg
- MCHC (9 h, dose level Low): 32.7%
- MCV (9 h, dose level Low): 63.6 fL
- Mono (9 h, dose level Low): 9.2%
- Neu (9 h, dose level Low): 24.4%
- PT (9 h, dose level Low): 12.3 s
- Plat (9 h, dose level Low): 124.9 x10_4/uL
- RBC (9 h, dose level Low): 612.8 x10_4/ul
- Ret (9 h, dose level Low): 6.7%
- WBC (9 h, dose level Low): 65.8 x10_2/uL
- KIDNEY_L (9 h, dose level High): 1 g
- KIDNEY_R (9 h, dose level High): 1 g
- KIDNEY_TOTAL (9 h, dose level High): 2 g
- KIDNEY_R (9 h, dose level Low): 0.9 g
- KIDNEY_TOTAL (9 h, dose level Low): 1.9 g
- LIVER (9 h, dose level High): 9.3 g
- LIVER (9 h, dose level Low): 9.4 g
- A/G (9 h, dose level High): 1.5
- ALP (9 h, dose level High): 749 IU/L
- ALT (9 h, dose level High): 33.2 IU/L
- AST (9 h, dose level High): 62 IU/L
- BUN (9 h, dose level High): 11 mg/dL
- CRE (9 h, dose level High): 0.3 mg/dL
- Ca (9 h, dose level High): 10.7 mg/dL
- Cl (9 h, dose level High): 103.4 meq/L
- DBIL (9 h, dose level High): 0.07 mg/dL
- GLC (9 h, dose level High): 191.8 mg/dL
- IP (9 h, dose level High): 9.6 mg/dL
- K (9 h, dose level High): 4 meq/L
- LDH (9 h, dose level High): 219.8 IU/L
- Na (9 h, dose level High): 141.2 meq/L
- PL (9 h, dose level High): 146.6 mg/dL
- RALB (9 h, dose level High): 3.2 g/dL
- TBIL (9 h, dose level High): 0.1 mg/dL
- TC (9 h, dose level High): 82.2 mg/dL
- TG (9 h, dose level High): 42.2 mg/dL
- TP (9 h, dose level High): 5.5 g/dL
- gamma-GTP (9 h, dose level High): 1.2 IU/L
- A/G (9 h, dose level Low): 2.1
- ALP (9 h, dose level Low): 1192 IU/L
- ALT (9 h, dose level Low): 30.2 IU/L
